Test results taken from patent publication US8853183B2, “Prognosis and treatment of breast cancer” (Trustees of Darmouth College, priority 2005, dated 2014).

Key:
[1] = tested on: human ovarian tumor cell xenografts; conditions: nude mice; Pizer, et al. (1996); cited from earlier work
breast cancer cells = conditions: Pizer, et al. (1996); cited from earlier work
[2] = tested on: lipogenic prostate cancer cells; conditions: Kridel, et al. (2004); cited from earlier work
[3] = tested on: lipogenic prostate cancer cells xenografts; conditions: immunodeficient mice; Kridel, et al. (2004); cited from earlier work
S14 mRNA [4] = conditions: Heemers, et al. (2000); cited from earlier work
FAS mRNA = experiment: Real-time RT-PCR of FAS mRNA in T47D cells
human S14 gene promoter = experiment: Human S14 gene promoter fragment luciferase reporter; format: cell-based; conditions: proximal 4003 bp of human S14 promoter fused to luciferase
Method: (§1) Using a human S14 gene promoter fragment fused to a luciferase reporter, the mechanism underlying R1881-induced accumulation of S14 mRNA was determined. The human S14 construct contained the proximal 4003 bp of the S14 promoter (Campbell, et al. (2003) Endocrinol. 144:5242-5248). […] Nevertheless, R1881 induced promoter activity by 4-fold. Employing a 157 bp fragment of the human FAS gene promoter that is also devoid of progesterone response elements (Swinnen, et al. (1997) supra), the effect of R1881 on FAS gene expression was examined.
(§2) T47D or HEK 293 cells were plated at 50% confluence in 75 cm^2 flasks and the next morning were transfected with 8 μg plasmid DNA in 48 μL FUGENE (Roche, Indianapolis, Ind.) in 5% charcoal-stripped serum-containing media without antibiotics. To ensure uniform transfection efficiency, cells were trypsinized, mixed, and redistributed into 6-well plates 8 hours later. Forty-eight hours post-transfection, culture medium was removed, and extracts prepared in reporter lysis buffer (250 μL/well; PROMEGA, Madison, Wis.). Lysates (20 μL) were assessed for luciferase activity using an LMaxII384 luminometer (MOLECULAR DEVICES, Sunnyvale, Calif.), and normalized to protein concentrations (BCA Protein Assay; Pierce, Rockland, Ill.).

SREBP-1c mRNA = experiment: Real-time RT-PCR of SREBP-1c mRNA in T47D cells; conditions: 10 nM, within 48 hours, cyclophilin as control
S14 mRNA [5] = experiment: Real-time RT-PCR of S14 mRNA in T47D cells
S14 protein = experiment: Western blot of S14 protein in T47D cells; conditions: single stimulus; R1881 10 nM 48 hours or adenovirus alone
human FAS gene promoter = experiment: Human FAS gene promoter fragment luciferase reporter; format: cell-based; conditions: 48 hours exposure
Method: as §1, §2

[6] = 10 nM, within 48 hours, T47D cells, cyclophilin as control
[7] = time course using nM R5020, T47D cells

For `C/C=C/C/C=C/CCC(=O)[C@H]1O[C@H]1C(N)=O` [Cerulenin], the “growth of human ovarian tumor cell xenografts” value [1] is given as “inhibit the growth” and the “apoptosis of breast cancer cells” value (breast cancer cells) is given as “cause apoptosis”.

For `CCCCCCCCCCC[C@@H](C[C@@H]1OC(=O)[C@H]1CCCCCC)OC(=O)[C@H](CC(C)C)NC=O` [Orlistat], the “apoptosis of lipogenic prostate cancer cells in culture” value [2] is given as “causes apoptosis” and the “apoptosis of lipogenic prostate cancer cells in xenografts” value [3] is given as “causes apoptosis”.

In the case of `C[C@]1(O)CC[C@H]2[C@@H]3CCC4=CC(=O)CCC4=C3C=C[C@@]21C` [R1881], the “S14 mRNA induction in T47D cells” value (S14 mRNA [4]) is listed as “significantly induces”, the “FAS mRNA induction” value (FAS mRNA; [6]) is listed as “significantly induced” and the “FAS mRNA induction by R1881 in presence of Ad-β-gal” value (FAS mRNA; T47D cells) is listed as about 2 fold. For the same molecule, the “S14 promoter activity induction” value (human S14 gene promoter) was 4 fold, the “SREBP-1c mRNA induction” value (SREBP-1c mRNA) was “significantly induced” and the “S14 mRNA induction” value (S14 mRNA [5]; [6]) was “significantly induced”. For the same molecule, the “S14 mRNA induction by R1881 in presence of control adenovirus (Ad-β-gal)” value (S14 mRNA [5]; R1881 10 nM, RNA harvested 40 hours later, MOI 50) was about 8 fold, the “S14 protein (~16 kD band) on western blot” value (S14 protein) was “faint band” and the FAS promoter induction (human FAS gene promoter; 157 bp fragment of human FAS gene promoter) was 4 fold. For the same molecule, the “FAS promoter response, construct with sterol response element deleted” value (human FAS gene promoter) was “markedly reduced”.

For `CCC(=O)[C@@]1(C)CC[C@H]2[C@@H]3CCC4=CC(=O)CCC4=C3CC[C@@]21C` [R5020], the “S14 mRNA induction in T47D cells” value (S14 mRNA [4]) is listed as “significantly induces”, the “FAS mRNA induction, time course” value (FAS mRNA; [7]) is listed as “comparable to that observed with R1881” and the “lag time between application of the hormone and onset of accumulation of FAS mRNA” value (FAS mRNA; time course, T47D cells) is listed as over 10 h. The “S14 mRNA induction, time course” value (S14 mRNA [5]; [7]) was “comparable to that observed with R1881” and the “lag time between application of the hormone and onset of accumulation of S14 mRNA” value (S14 mRNA [5]; time course, T47D cells) was over 10 h.
